Results published in patent US10167262B2, “Herbicidal substituted 3-arylpyrazoles” (FMC CORPORATION, priority 2014, dated 2019).

Tests used:
Type in all cases: in vivo
[1] = tested on: barnyardgrass (Echinochloa crus-galli); assay: Test C pre-/postemergence greenhouse test, plant response rating 0-100
In short: (§1)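 Pre- and postemergence greenhouse test: seeds sown in loam/sand and treated preemergence, or plants at 2–18 cm (1- to 4-leaf stage) in peat-based medium sprayed postemergence, with compounds in non-phytotoxic solvent plus surfactant. Visual rating versus untreated controls after 13–15 days, 0 (no effect) to 100 (complete control).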

[2] = tested on: oilseed rape (Brassica napus); assay: as above
In short: as §1

[3] = tested on: waterhemp (common waterhemp, Amaranthus rudis); assay: as above
In short: as §1

[4] = tested on: goosegrass (Eleusine indica); assay: Test E pre-/postemergence greenhouse test, plant response rating 0-100; conditions: Preemergence, scale 0 to 100
[5] = tested on: ragweed (common ragweed, Ambrosia elatior); assay: as above; conditions: Preemergence, scale 0 to 100
In short: (§2)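 Seeds sown in silt loam were treated preemergence, and seedlings in peat-based potting medium were treated postemergence at the 1- to 4-leaf stage (2-18 cm tall). Test chemicals were formulated in a non-phytotoxic solvent mixture with surfactant. After 14-21 days in the greenhouse, injury was rated visually against untreated controls (0 = no effect, 100 = complete control).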

[6] = tested on: surinam grass (Brachiaria decumbens); assay: as above; conditions: Preemergence, scale 0 to 100
In short: as §2

[7] = tested on: velvetleaf (Abutilon theophrasti); assay: as above; conditions: Preemergence, scale 0 to 100
In short: as §2

[8] = tested on: bermudagrass (Cynodon dactylon); assay: Test C postemergence greenhouse test, plant response rating 0-100; conditions: for Plant response rating, Bermudagrass: scale 0 to 100
In short: (§3)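 Scores run from 0, meaning no effect, to 100, meaning complete control, and come from visual comparison with untreated controls. Treatment was a postemergence application to plants 2–18 cm tall. Assessment followed 13 to 15 days of greenhouse growth.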

[9] = tested on: cocklebur (common cocklebur, Xanthium strumarium); assay: as above; conditions: for Plant response rating, Cocklebur: scale 0 to 100
In short: as §3

[10] = tested on: surinam grass (Brachiaria decumbens); assay: as above; conditions: for Plant response rating, Surinam Grass: scale 0 to 100
In short: as §3

[11] = Postemergence, 250 g ai/ha, scale 0 to 100
[12] = Postemergence, 500 g ai/ha, scale 0 to 100

Compound: O=Cn1cc(C(=O)c2ccccc2)c(-c2cc(Cl)cc(Cl)c2)n1 [Compound 28]
- Plant response rating (0 to 100), Barnyardgrass ([1]; Postemergence, 62 g ai/ha): 0
- Plant response rating, Barnyardgrass ([1]; Postemergence, 125 g ai/ha, scale 0 to 100): 0
- Plant response rating, Barnyardgrass [1, 11]: 0
- Plant response rating, Barnyardgrass [1, 12]: 0
- Plant response rating, Barnyardgrass ([1]; Preemergence, 62 g ai/ha): 0
- Plant response rating, Barnyardgrass ([1]; Preemergence, 125 g ai/ha): 0
- Plant response rating, Barnyardgrass ([1]; Preemergence, 250 g ai/ha): 0
- Plant response rating, Barnyardgrass ([1]; Preemergence, 500 g ai/ha): 0
- Plant response rating (0 to 100), Oilseed Rape ([2]; Postemergence, 62 g ai/ha): 80
- Plant response rating (0 to 100), Oilseed Rape ([2]; Postemergence, 125 g ai/ha): 85
- Plant response rating, Oilseed Rape [2, 11]: 85
- Plant response rating, Oilseed Rape [2, 12]: 95
- Plant response rating, Oilseed Rape ([2]; Preemergence, 62 g ai/ha): 5
- Plant response rating, Oilseed Rape ([2]; Preemergence, 125 g ai/ha): 30
- Plant response rating, Oilseed Rape ([2]; Preemergence, 250 g ai/ha): 98
- Plant response rating, Oilseed Rape ([2]; Preemergence, 500 g ai/ha): 100
- Plant response rating (0 to 100), Waterhemp ([3]; Postemergence, 62 g ai/ha): 95
- Plant response rating (0 to 100), Waterhemp ([3]; Postemergence, 125 g ai/ha): 98
- Plant response rating, Waterhemp [3, 11]: 98
- Plant response rating, Waterhemp [3, 12]: 100
- Plant response rating, Waterhemp ([3]; Preemergence, 62 g ai/ha): 100
- Plant response rating, Waterhemp ([3]; Preemergence, 125 g ai/ha): 100
- Plant response rating, Waterhemp ([3]; Preemergence, 250 g ai/ha): 100
- Plant response rating, Waterhemp ([3]; Preemergence, 500 g ai/ha): 100
- Goosegrass plant response rating ([4]; 31 g ai/ha): 0
- Goosegrass plant response rating ([4]; 62 g ai/ha): 0
- Goosegrass plant response rating ([4]; 125 g ai/ha): 0
- Goosegrass plant response rating ([4]; 250 g ai/ha): 0
- Goosegrass plant response rating ([4]; 500 g ai/ha): 0
- Ragweed plant response rating ([5]; 31 g ai/ha): 0
- Ragweed plant response rating ([5]; 62 g ai/ha): 0
- Ragweed plant response rating ([5]; 125 g ai/ha): 30
- Ragweed plant response rating ([5]; 250 g ai/ha): 65
- Ragweed plant response rating ([5]; 500 g ai/ha): 70
- Surinam Grass plant response rating ([6]; 31 g ai/ha): 0
- Surinam Grass plant response rating ([6]; 62 g ai/ha): 0
- Surinam Grass plant response rating ([6]; 125 g ai/ha): 0
- Surinam Grass plant response rating ([6]; 250 g ai/ha): 0
- Surinam Grass plant response rating ([6]; 500 g ai/ha): 0
- Velvetleaf plant response rating ([7]; 31 g ai/ha): 0
- Velvetleaf plant response rating ([7]; 62 g ai/ha): 0
- Velvetleaf plant response rating ([7]; 125 g ai/ha): 0
- Velvetleaf plant response rating ([7]; 250 g ai/ha): 40
- Velvetleaf plant response rating ([7]; 500 g ai/ha): 100

Compound: Fc1ccccc1NN=C(c1ccccc1)c1c[nH]nc1-c1cc(Cl)cc(Cl)c1 [Compound 57]
- Plant response rating (0 to 100), Bermudagrass ([8]; 31 g ai/ha): 0
- Plant response rating (0 to 100), Bermudagrass ([8]; 62 g ai/ha): 0
- Plant response rating (0 to 100), Bermudagrass ([8]; 125 g ai/ha): 0
- Plant response rating, Bermudagrass ([8]; 250 g ai/ha): 5
- Plant response rating (0 to 100), Cocklebur ([9]; 31 g ai/ha): 10
- Plant response rating (0 to 100), Cocklebur ([9]; 62 g ai/ha): 70
- Plant response rating (0 to 100), Cocklebur ([9]; 125 g ai/ha): 70
- Plant response rating, Cocklebur ([9]; 250 g ai/ha): 70
- Plant response rating (0 to 100), Surinam Grass ([10]; 62 g ai/ha): 0
- Plant response rating (0 to 100), Surinam Grass ([10]; 125 g ai/ha): 0
- Plant response rating, Surinam Grass ([10]; 250 g ai/ha): 0

Compound: Clc1cc(Cl)cc(-c2n[nH]cc2C(=NN2CCCC2)c2ccccc2)c1 [Compound 30, N-[[3-(3,5-dichlorophenyl)-1H-pyrazol-4-yl]phenylmethylene]-1-pyrrolidinamine]
- Plant response rating, Barnyardgrass ([1]; Preemergence, 62 g ai/ha): 0
- Plant response rating, Barnyardgrass ([1]; Preemergence, 125 g ai/ha): 0
- Plant response rating, Barnyardgrass ([1]; Preemergence, 250 g ai/ha): 0
- Plant response rating, Barnyardgrass ([1]; Preemergence, 500 g ai/ha): 0
- Plant response rating, Oilseed Rape ([2]; Preemergence, 62 g ai/ha): 50
- Plant response rating, Oilseed Rape ([2]; Preemergence, 125 g ai/ha): 80
- Plant response rating, Oilseed Rape ([2]; Preemergence, 250 g ai/ha): 85
- Plant response rating, Oilseed Rape ([2]; Preemergence, 500 g ai/ha): 100
- Plant response rating, Waterhemp ([3]; Preemergence, 62 g ai/ha): 100
- Plant response rating, Waterhemp ([3]; Preemergence, 125 g ai/ha): 100
- Plant response rating, Waterhemp ([3]; Preemergence, 250 g ai/ha): 100
- Plant response rating, Waterhemp ([3]; Preemergence, 500 g ai/ha): 100
- Plant response rating (0 to 100), Bermudagrass ([8]; 31 g ai/ha): 0
- Plant response rating (0 to 100), Bermudagrass ([8]; 62 g ai/ha): 0
- Plant response rating, Bermudagrass ([8]; 125 g ai/ha): 0
- Plant response rating, Bermudagrass ([8]; 250 g ai/ha): 0
- Plant response rating (0 to 100), Cocklebur ([9]; 31 g ai/ha): 10
- Plant response rating (0 to 100), Surinam Grass ([10]; 62 g ai/ha): 0
- Plant response rating (0 to 100), Surinam Grass ([10]; 125 g ai/ha): 0
- Plant response rating, Surinam Grass ([10]; 250 g ai/ha): 0

Compound: CC(C)n1cc(C(=O)c2ccccc2)c(-c2cc(Cl)cc(Cl)c2)n1 [Compound 44]
- Plant response rating (0 to 100), Bermudagrass ([8]; 31 g ai/ha): 0
- Plant response rating (0 to 100), Bermudagrass ([8]; 62 g ai/ha): 0
- Plant response rating (0 to 100), Bermudagrass ([8]; 125 g ai/ha): 0
- Plant response rating, Bermudagrass ([8]; 250 g ai/ha): 0
- Plant response rating (0 to 100), Cocklebur ([9]; 31 g ai/ha): 0
- Plant response rating (0 to 100), Cocklebur ([9]; 62 g ai/ha): 0
- Plant response rating (0 to 100), Cocklebur ([9]; 125 g ai/ha): 10
- Plant response rating, Cocklebur ([9]; 250 g ai/ha): 30
- Plant response rating (0 to 100), Surinam Grass ([10]; 62 g ai/ha): 0
- Plant response rating (0 to 100), Surinam Grass ([10]; 125 g ai/ha): 0
- Plant response rating, Surinam Grass ([10]; 250 g ai/ha): 0

Compound: Cn1cc(C(=NN2CCCC2)c2ccccc2)c(-c2cc(Cl)c(Cl)c(Cl)c2)n1 [Compound 25]
- Plant response rating (0 to 100), Bermudagrass ([8]; 31 g ai/ha): 0
- Plant response rating (0 to 100), Bermudagrass ([8]; 62 g ai/ha): 0
- Plant response rating, Bermudagrass ([8]; 125 g ai/ha): 0
- Plant response rating, Bermudagrass ([8]; 250 g ai/ha): 0
- Plant response rating (0 to 100), Cocklebur ([9]; 31 g ai/ha): 5
- Plant response rating (0 to 100), Cocklebur ([9]; 62 g ai/ha): 15
- Plant response rating (0 to 100), Cocklebur ([9]; 125 g ai/ha): 15
- Plant response rating, Cocklebur ([9]; 250 g ai/ha): 25
- Plant response rating (0 to 100), Surinam Grass ([10]; 62 g ai/ha): 0
- Plant response rating (0 to 100), Surinam Grass ([10]; 125 g ai/ha): 0
- Plant response rating, Surinam Grass ([10]; 250 g ai/ha): 0

Compound: Fc1ccc(NN=C(c2ccccc2)c2c[nH]nc2-c2cc(Cl)cc(Cl)c2)cc1 [Compound 35]
- Plant response rating (0 to 100), Bermudagrass ([8]; 62 g ai/ha): 0
- Plant response rating (0 to 100), Bermudagrass ([8]; 125 g ai/ha): 0
- Plant response rating, Bermudagrass ([8]; 250 g ai/ha): 0
- Plant response rating, Bermudagrass ([8]; 500 g ai/ha): 0
- Plant response rating (0 to 100), Cocklebur ([9]; 62 g ai/ha): 60
- Plant response rating (0 to 100), Cocklebur ([9]; 125 g ai/ha): 60
- Plant response rating, Cocklebur ([9]; 250 g ai/ha): 75
- Plant response rating, Cocklebur ([9]; 500 g ai/ha): 75
- Plant response rating (0 to 100), Surinam Grass ([10]; 62 g ai/ha): 0
- Plant response rating (0 to 100), Surinam Grass ([10]; 125 g ai/ha): 0
- Plant response rating, Surinam Grass ([10]; 250 g ai/ha): 0
- Plant response rating, Surinam Grass ([10]; 500 g ai/ha): 0

Compound: CCn1cc(C(=NN2CCCC2)c2ccccc2)c(-c2cc(Cl)cc(Cl)c2)n1 [Compound 37]
- Plant response rating (0 to 100), Bermudagrass ([8]; 31 g ai/ha): 0
- Plant response rating (0 to 100), Bermudagrass ([8]; 62 g ai/ha): 0
- Plant response rating (0 to 100), Bermudagrass ([8]; 125 g ai/ha): 0
- Plant response rating, Bermudagrass ([8]; 250 g ai/ha): 0
- Plant response rating (0 to 100), Cocklebur ([9]; 31 g ai/ha): 5
- Plant response rating (0 to 100), Cocklebur ([9]; 62 g ai/ha): 10
- Plant response rating (0 to 100), Cocklebur ([9]; 125 g ai/ha): 15
- Plant response rating, Cocklebur ([9]; 250 g ai/ha): 20
- Plant response rating (0 to 100), Surinam Grass ([10]; 62 g ai/ha): 0
- Plant response rating (0 to 100), Surinam Grass ([10]; 125 g ai/ha): 0
- Plant response rating, Surinam Grass ([10]; 250 g ai/ha): 0

Compound: Cn1cc(C(=O)c2cccs2)c(-c2cc(Cl)cc(Cl)c2)n1 [Compound 17]
- Plant response rating (0 to 100), Bermudagrass ([8]; 62 g ai/ha): 0
- Plant response rating, Bermudagrass ([8]; 125 g ai/ha): 0
- Plant response rating, Bermudagrass ([8]; 250 g ai/ha): 0
- Plant response rating, Bermudagrass ([8]; 500 g ai/ha): 0
- Plant response rating (0 to 100), Cocklebur ([9]; 62 g ai/ha): 5
- Plant response rating (0 to 100), Cocklebur ([9]; 125 g ai/ha): 10
- Plant response rating, Cocklebur ([9]; 250 g ai/ha): 30
- Plant response rating, Cocklebur ([9]; 500 g ai/ha): 40
- Plant response rating (0 to 100), Surinam Grass ([10]; 62 g ai/ha): 0
- Plant response rating (0 to 100), Surinam Grass ([10]; 125 g ai/ha): 0
- Plant response rating, Surinam Grass ([10]; 250 g ai/ha): 5
- Plant response rating, Surinam Grass ([10]; 500 g ai/ha): 5
